Source: patent publication US10960087B2, “Compositions and methods for treatment of diabetic retinopathy” (NOVARTIS AG, priority 2007, dated 2021)

Key:
[1] = test system: HuT 78 cell adhesion to 5dICAM-Ig; assay: Human T-cell adhesion assay (HuT 78); type: cell-based; conditions: HuT78, HuT 78 adhesion to 5dICAM-Ig
Experimental: The T-cell adhesion assay was performed using the human T-lymphoid cell line HuT 78 (ATCC TIB-161). Goat anti-HuIgG(Fc) was diluted to 2 μg/ml in PBS and 96-well plates were coated with 50 μl/well at 37° C. for 1 h. Plates were washed with PBS and blocked for 1 h at room temperature with 1% BSA in PBS. 5 domain ICAM-Ig was diluted to 100 ng/ml in PBS and 50 μl/well was added to the plates 0/N at 4° C. HuT 78 cells were centrifuged at 100 g and the cell pellet was treated with 5 mM EDTA for ˜5′ at 37° C. in a 5% CO2 incubator. Cells were washed in 0.14 M NaCl, 0.02 M Hepes, 0.2% glucose and 0.1 mM MnCl2 (assay buffer) and centrifuged. The cells were resuspended in assay buffer to 3.0×10^6 c/ml. Inhibitors were diluted in assay buffer to a 2× final concentration and pre-incubated with HuT78 cells for 30′ at room temperature. 100 μl/well of cells and inhibitors were added to the plates and incubated at room temperature for 1 h. 100 μl/well PBS was added and the plates were sealed and centrifuged inverted at 100 g for 5′. Unattached cells were flicked out of the plate and excess PBS was blotted on a paper towel. 60 μl/well p-nitrophenyl n-acetyl-β-D-glucosaminide (0.257 g to 100 ml citrate buffer) was added to the plate and incubated for 1.5 h at 37° C. The enzyme reaction was stopped with 90 μI/well 50 mM glycine/5 mM EDTA and read on a platereader at […]. HUT 78 cell adhesion to 5dICAM-Ig was measured using the p-nitrophenyl n-acetyl-.β-D-glucosaminide method of Landegren, U. (1984). J. Immunol. Methods 57, 379-388.

[2] = Solubility; type: physicochemical

Row | Compound | EC50 [1] [nM] | solubility [2] [mg/mL]
1 | O=C(NC[C@H](NC(=O)c1c(Cl)cc2c(c1Cl)CCN(C(=O)Nc1cccc(Cl)c1)C2)C(=O)O)c1cccs1 [Compound 21] | ≤ 50 | > 100
2 | O=C(N[C@@H](Cn1cc(CO)nn1)C(=O)O)c1c(Cl)cc2c(c1Cl)CCN(C(=O)c1ccc(Cl)cc1)C2 [Compound 8] | ≤ 100 | –
3 | CS(=O)(=O)c1cc(F)cc(C[C@H](NC(=O)c2c(Cl)cc3c(c2Cl)CCN(C(=O)c2ccc4ccoc4c2)C3)C(=O)O)c1 [Compound 25] | ≤ 50 | > 100
4 | CS(=O)(=O)c1cccc(C[C@H](NC(=O)c2c(Cl)cc3c(c2Cl)CCN(C(=O)c2cc4cccnc4[nH]2)C3)C(=O)O)c1 [Compound 19] | ≤ 50 | > 50
5 | O=C(NC[C@H](NC(=O)c1cc2c(cc1Cl)C(=O)N(Cc1ccccc1)CC2)C(=O)O)c1cccs1 [Compound 11] | ≤ 3000 | –
6 | CC(C)n1cc(C[C@H](NC(=O)c2c(Cl)cc3c(c2Cl)CCN(C(=O)c2ccc(Cl)cc2)C3)C(=O)O)nn1 [Compound 24] | ≤ 100 | –
7 | O=C(NC[C@H](NC(=O)c1c(Cl)cc2c(c1Cl)CCN(C(=O)c1ccc(Cl)c(Cl)c1)C2)C(=O)O)c1cccs1 [Compound 18] | ≤ 50 | –
8 | O=C(NC[C@H](NC(=O)c1c(Cl)cc2c(c1Cl)CCN(C(=O)c1ccc(Cl)cc1)C2)C(=O)O)c1ccccc1 [Compound 5] | ≤ 50 | –
9 | O=C(N[C@@H](Cc1c[nH]cn1)C(=O)O)c1c(Cl)cc2c(c1Cl)CCN(C(=O)c1ccc(Cl)cc1)C2 [Compound 1] | ≤ 300 | –
10 | C[S+]([O-])c1cncc(C[C@H](NC(=O)c2c(Cl)cc3c(c2Cl)CCN(C(=O)c2ccc4ccoc4c2)C3)C(=O)O)c1 (stereo partly shown) [Compound 14] | ≤ 50 | –
11 | CN1CCN(C(=O)[C@H](CNC(=O)c2cccs2)NC(=O)c2c(Cl)cc3c(c2Cl)CCN(C(=O)c2ccc(Cl)cc2)C3)CC1 [Compound 10] | – | > 100
12 | C[S+]([O-])c1cc(F)cc(C[C@H](NC(=O)c2c(Cl)cc3c(c2Cl)CCN(C(=O)c2ccc(Cl)cc2)C3)C(=O)O)c1 (stereo partly shown) [Compound 9] | ≤ 50 | > 50
13 | CCc1c(C(=O)N[C@@H](CNC(=O)c2cccs2)C(=O)O)c2ccccc2n(CCCc2ccccc2)c1=O [Compound 6] | ≤ 50 | > 100
14 | O=C(NC[C@H](NC(=O)c1c(Cl)cc2c(c1Cl)CCN(C(=O)c1cccc(Cl)c1)C2)C(=O)O)c1cccs1 [Compound 2] | ≤ 50 | > 100
15 | O=C(NC[C@H](NC(=O)c1c(Cl)cc2c(c1Cl)CCN(C(=O)c1ccc(Cl)cc1)C2CO)C(=O)O)c1cccs1 (stereo partly shown) [Compound 17] | ≤ 50 | –
16 | CS(=O)(=O)N1CCC=C(C[C@H](NC(=O)c2c(Cl)cc3c(c2Cl)CCN(C(=O)c2ccc4ccoc4c2)C3)C(=O)O)C1 [Compound 23] | ≤ 50 | –
17 | CS(=O)(=O)c1nc(C[C@H](NC(=O)c2c(Cl)cc3c(c2Cl)CCN(C(=O)c2ccc(Cl)cc2)C3)C(=O)O)c[nH]1 [Compound 7] | ≤ 50 | –
18 | CS(=O)(=O)c1cccc(C[C@H](NC(=O)c2c(Cl)cc3c(c2Cl)CCN(C(=O)c2cc4ccccc4cn2)C3)C(=O)O)c1 [Compound 16] | ≤ 50 | > 100
19 | CS(=O)(=O)c1ccc(C[C@H](NC(=O)c2c(Cl)cc3c(c2Cl)CCN(C(=O)c2cc4cccnc4[nH]2)C3)C(=O)O)o1 [Compound 20] | ≤ 50 | > 100
20 | C=C(C)c1cn(C[C@H](NC(=O)c2c(Cl)cc3c(c2Cl)CCN(C(=O)c2ccc(Cl)cc2)C3)C(=O)O)nn1 [Compound 4] | ≤ 100 | –
21 | O=C(NC[C@H](NC(=O)c1c(Cl)cc2c(c1Cl)CCN(C(=O)c1ccc3cc[nH]c3c1)C2)C(=O)O)c1cccs1 [Compound 13] | ≤ 50 | –
22 | CS(=O)(=O)c1cccc(C[C@H](NC(=O)c2c(Cl)cc3c(c2Cl)CCN(C(=O)c2ccc4cn[nH]c4c2)C3)C(=O)O)c1 [Compound 15] | ≤ 50 | > 100
23 | CS(=O)(=O)c1cccc(C[C@H](NC(=O)c2c(Cl)cc3c(c2Cl)CCN(C(=O)c2ccc4ccoc4c2)C3)C(=O)O)c1 [Compound 12] | ≤ 50 | > 100
24 | O=C(N[C@@H](CNc1ncnc2ccccc12)C(=O)O)c1c(Cl)cc2c(c1Cl)CCN(C(=O)c1ccc(Cl)cc1)C2 [Compound 3] | ≤ 50 | –
25 | CS(=O)(=O)c1ccn(C[C@H](NC(=O)c2c(Cl)cc3c(c2Cl)CCN(C(=O)c2ccc4ccoc4c2)C3)C(=O)O)c1 [Compound 22] | ≤ 50 | –

The remaining lines, values ahead:

Row | EC50 [1] [nM] | solubility [2] [mg/mL] | Compound
26 | ≤ 50 | > 100 | O=C(NC[C@H](NC(=O)c1c(Cl)cc2c(c1Cl)CCN(C(=O)c1cc(O)nc3ccccc13)C2)C(=O)O)c1cccs1 [Compound 35]
27 | ≤ 50 | > 100 | O=C(NC[C@H](NC(=O)c1c(Cl)cc2c(c1Cl)CCN(C(=O)/C=C/c1ccco1)C2)C(=O)O)c1cccs1 [Compound 45]
28 | ≤ 50 | > 100 | CS(=O)(=O)c1cccc(C[C@H](NC(=O)c2c(Cl)cc3c(c2Cl)CCN(C(=O)/C=C/c2ccccc2F)C3)C(=O)O)c1 [Compound 27]
29 | ≤ 50 | > 50 | CS(=O)(=O)c1cccc(C[C@H](NC(=O)c2c(Cl)cc3c(c2Cl)CCN(C(=O)c2cc4ccccc4[nH]2)C3)C(=O)O)c1 [Compound 36]
30 | ≤ 50 | > 50 | O=C(NC[C@H](NC(=O)c1c(Cl)cc(CCC(O)c2cccc(O)c2)cc1Cl)C(=O)O)c1cccs1 (stereo partly shown) [Compound 32]
31 | ≤ 50 | – | CS(=O)(=O)Nc1ccccc1NC[C@H](NC(=O)c1c(Cl)cc2c(c1Cl)CCN(C(=O)c1ccc(Cl)cc1)C2)C(=O)O [Compound 39]
32 | ≤ 50 | – | C[C@H](O)c1cccc(C[C@H](NC(=O)c2c(Cl)cc3c(c2Cl)CCN(C(=O)c2ccc4cn[nH]c4c2)C3)C(=O)O)c1 [Compound 48]
33 | ≤ 100 | > 100 | CS(=O)(=O)c1cccc(C[C@H](NC(=O)c2c(Cl)cccc2Cl)C(=O)O)c1 [Compound 46]
34 | ≤ 50 | – | Cc1oc(C[C@H](NC(=O)c2c(Cl)cc3c(c2Cl)CCN(C(=O)c2ccc4ccoc4c2)C3)C(=O)O)cc1S(C)(=O)=O [Compound 30]
35 | ≤ 50 | > 100 | CS(=O)(=O)c1ccc(C[C@H](NC(=O)c2c(Cl)cc3c(c2Cl)CCN(C(=O)c2ccc4ccoc4c2)C3)C(=O)O)o1 [Compound 41]
36 | ≤ 50 | – | O=C(NC[C@H](NC(=O)c1c(Cl)cc2c(c1Cl)CCN(C(=O)c1ccc3cn[nH]c3c1)C2)C(=O)O)c1cccs1 [Compound 34]
37 | ≤ 50 | > 100 | CS(=O)(=O)NCCC[C@H](NC(=O)c1c(Cl)cc2c(c1Cl)CCN(C(=O)c1ccc3ccoc3c1)C2)C(=O)O [Compound 44]
38 | ≤ 50 | – | O=C(CCc1cc(Cl)c(C(=O)N[C@@H](CNC(=O)c2cccs2)C(=O)O)c(Cl)c1)c1cccc(O)c1 [Compound 47]
39 | ≤ 3000 | > 50 | Cc1cc2c(=O)n(Cc3ccccc3)ncc2cc1C(=O)N[C@@H](CNC(=O)c1cccs1)C(=O)O [Compound 29]
40 | ≤ 3000 | > 100 | CS(=O)(=O)CCNC[C@H](NC(=O)c1c(Cl)cc2c(c1Cl)CCN(C(=O)c1ccc(Cl)cc1)C2)C(=O)O [Compound 42]
41 | ≤ 50 | – | O=C(NC[C@H](NC(=O)c1c(Cl)cc2c(c1Cl)CCN(C(=O)c1cc3ccccc3o1)C2)C(=O)O)c1cccs1 [Compound 38]
42 | ≤ 50 | – | CS(=O)(=O)c1cccc(C[C@H](NC(=O)c2c(Cl)cc3c(c2Cl)CCN(C(=O)c2ccc(Cl)cc2)C3)C(=O)O)c1 [Compound 28]
43 | ≤ 50 | – | CS(=O)(=O)c1cccc(C[C@H](NC(=O)c2c(Cl)cc(CNC(=O)/C=C/c3ccccc3O)cc2Cl)C(=O)O)c1 [Compound 43]
44 | ≤ 100 | – | CS(=O)(=O)c1cccc(C[C@H](NC(=O)c2c(Cl)cc(CCC(O)c3ccc(Cl)cc3)cc2Cl)C(=O)O)c1 (stereo partly shown) [Compound 37]
45 | ≤ 100 | – | CP(C)(=O)c1cccc(C[C@H](NC(=O)c2c(Cl)cc3c(c2Cl)CCN(C(=O)c2ccc4ccoc4c2)C3)C(=O)O)c1 [Compound 49]
46 | ≤ 50 | – | N#CN=C(NC[C@H](NC(=O)c1c(Cl)cc2c(c1Cl)CCN(C(=O)/C=C/c1ccccc1O)C2)C(=O)O)N1CC[C@H](O)C1 [Compound 26]
47 | ≤ 50 | – | CS(=O)(=O)c1cncc(C[C@H](NC(=O)c2c(Cl)cc3c(c2Cl)CCN(C(=O)c2ccc4ccoc4c2)C3)C(=O)O)c1 [Compound 33]
48 | ≤ 50 | > 50 | O=C(NC[C@H](NC(=O)c1c(Cl)cc2c(c1Cl)CCN(C(=O)c1ccc3ccoc3c1)C2)C(=O)O)c1cccc(F)c1 [Compound 31]
49 | ≤ 300 | – | CS(=O)(=O)n1cc(C[C@H](NC(=O)c2c(Cl)cc3c(c2Cl)CCN(C(=O)/C=C/c2ccco2)C3)C(=O)O)c2ccccc21 [Compound 40]
